# Results: patent US10966979B2 (Sandoz AG, priority 2017, dated 2021)
# What was measured:
# [1] = Accelerated stress test at 40° C./75% RH (physical stability by powder X-ray diffraction and visual control of consistency); type: physicochemical
# Description: Powder X-ray diffraction was performed with a PANalytical X'Pert PRO diffractometer equipped with a theta/theta coupled goniometer in transmission geometry, Cu-Kalpha1,2 radiation (wavelength 0.15419 nm) with a focusing mirror and a solid state PIXcel detector. Diffractograms were recorded at a tube voltage of 45 kV and a tube current of 40 mA, applying a stepsize of 0.013° 2-Theta with 40 s per step (255 channels) in the angular range of 2° to 40° 2-Theta at ambient conditions.
# Example 2: Accelerated Stress Test at 40° C./75% RH With Solid Dispersions Comprising Amorphous Elagolix Sodium and at Least One Silicon-Based Inorganic Compound in a 1:1 Weight Ratio vs. Neat Elagolix Sodium
# The physical stability against moisture and temperature stress has been tested for different solid dispersions comprising amorphous elagolix sodium and at least one silicon-based inorganic compound and for neat amorphous elagolix. For this purpose, the solid dispersions were stored open at accelerated stress conditions of 40° C. and 75% RH for 1, 3 and 6 weeks respectively. The physical stability has been investigated by means of powder X-ray diffraction and the consistency of the samples was visually controlled.
# [2] = Behaviour of elagolix sodium upon moisture contact (hygroscopicity, deliquescence); type: physicochemical; conditions: no further conditions given
# Source text: Said properties require special care and precautionary measures such as a controlled atmosphere during pharmaceutical processing, which renders manufacturing cumbersome and expensive. […] Such formulations may negatively influence patients' compliance, in particular for elderly people having troubles swallowing.
# As used herein the term “deliquescent” means the property of a solid form of a compound to readily absorb moisture form the surrounding atmosphere until it deliquesces and forms a solution upon storage for 14 days at 40° C., atmospheric pressure and 75% relative humidity.
compound,measurement,setting,value
"COc1cccc(-c2c(C)n(Cc3c(F)cccc3C(F)(F)F)c(=O)n(C[C@H](NCCCC(=O)O)c3ccccc3)c2=O)c1F [elagolix Na, 4-[[(1R)-2-[5-(2-fluoro-3-methoxyphenyl)-3-[[2-fluoro-6-(trifluoromethyl)phenyl]methyl]-3,6-dihydro-4-methyl-2,6-dioxo-1(2H)-pyrimidinyl]-1-phenylethyl]amino]butanoic acid]",consistency / deliquescence during the stress test,"[1]; accelerated stress conditions of 40° C. and 75% RH, up to 6 weeks",deliquesced fairly quickly
same,Initial sample,"[1]; solid state and consistency before storage, PXRD and visual control",amorphous solid
same,1 week at 40° C./75% RH,"[1]; stored open, 1 week, 40° C., 75% RH, PXRD and visual control",deliquescence
same,hygroscopicity / deliquescence upon moisture contact,[2]; listed as elagolix sodium,highly hygroscopic
same,hygroscopicity / deliquescence upon moisture contact,[2]; listed as neat amorphous elagolix sodium,deliquesces fairly quickly
